Assay results: patent US4122202A, “Amino-3H-isobenzofuranones N-substitutes and their therapeutic application” (Societe Cortial, priority 1975, dated 1978)
Like-named read-outs stand apart in the source and are kept apart here.

What was measured:
mice [1] = experiment: Oral toxicity in mice (LDO, LD50); format: in vivo; conditions: gummy julep (No. 1 and 13 in Tween), 2 weeks observation
Method: (§1) This toxicity is estimated by the calculation of the lethal dose of 50 (LD 50) which determines the fatal dose of the substance for 50% of the animals tested. This determination was effected in accordance with a modification of the method by Litchfield and Wilcoxon (J. Pharmacol. Exp. Therap. 1949, 96, 99-113).
(§2) Swiss mice without specific pathogenic organisms were kept in air conditioned rooms 24 to 48 hours before the start of the tests. They were divided into batches of 5.male. and 5.female.. With the animals unfed for 24 hours, the substances were intragastically administered in suspension in 2% Tween 80 or in 6% gummy julep in a volume equivalent to 0.1 ml per 10 g of the weight of the animal.
(§3) They remained under observation for two weeks before being killed and subjected to an autopsy.
(§4) All products were administered in gummy julep except No. 1 and No. 13 which were administered in Tween. The analgesic activity were determined in mice by utilizing as a nociceptive agent, phenylbenzoquinone (PBQ) (modification of the method by Siegmund and co-workers Proc. Soc. Exp. Biol. Med. 1957, 95, 729-31). The process consists of seeking a possible protection for the mouse vis-a-vis abdominal twisting and stretching of the hind legs induced by the parental injection of PBQ. 25 minutes after having orally administered the products to be tested in suspension in 2% Tween 80 or in 6% gummy julep, the PBQ solution was injected and the mice were observed after 5 minutes during the following 5 minutes. For certain products, AD 50 is presented as a measure of activity.

rats = experiment: Anti-inflammatory activity: carragenic test (carragenine-induced edema of the hind leg); format: in vivo, male rats; conditions: for ED50: Rattus norvegicus, oral, read-out: ED 50
Method: All products were administered in gummy julep except No. 1 and No. 13 which were administered in suspension in Tween. The anti-inflammatory activity was determined by the carragenic test with male rats. Inflammation was induced by the injection of 0.1 ml of a 0.5% suspension of carragenine in a physiological serum into the muscular fasciculus of the metatarsal region of the hind leg of the animal. The substance to be tested was orally administered simultaneously with the carragenine. The edema was measured by phethysmography 1, 2, 3, 4, 5 and 6 hours after the administration of the carragenine.
**50 mg/kg No. 13 which were administered in suspension in Tween.

mice [2] = experiment: Analgesic activity: protection against abdominal twisting induced by phenylbenzoquinone (PBQ); format: in vivo; conditions: for ED50: Mus musculus, oral, read-out: AD 50 (the source's name)
Method: as §4, with “activity. […]” for “activity.”

[3] = Oral toxicity in mice (LDO, LD50); format: in vivo; conditions: mouse, in vivo, gummy julep (No. 1 and 13 in Tween), 2 weeks observation
Method: as §1, §2, §3, §4

Row | Compound | LDO (maximum dose which did not lead to any mortality) (mice [1]) | % activity (inhibition of edema) (rats; 200 mg/kg oral, 4H) [%] | % activity (inhibition of edema) (rats; 400 mg/kg oral, 4H) [%] | ED50 (rats; 2H) [mg/kg] | ED50 (rats; 4H) [mg/kg] | % activity (mice [2]; 200 mg/kg oral) [%] | ED50 (mice [2]) [mg/kg] | LD50 at 336 h [3] [mg/kg] | further results
1 | COc1ccc2c(c1OC)C(=O)OC2Nc1ccc2c(c1)OCCO2 (stereo not shown) [Product 14] | > 2000 mg/kg | 33 | 63 | 175 | 260 | 73 | 150 | – | % activity (inhibition of edema) (rats; 200 mg/kg oral, 2H): 63%; % activity (inhibition of edema) (rats; 400 mg/kg oral, 2H): 79%
2 | CCCC1(CCC)Oc2ccc(NC3OC(=O)c4ccccc43)cc2O1 (stereo not shown) [Product 4] | – | 23 | 13 | – | – | 20 | – | ~2000 | –
3 | CCCC1(CC)Oc2ccc(NC3OC(=O)c4ccccc43)cc2O1 (stereo not shown) [Product 6] | 1000 to 2000 mg/kg | 22 | 3 | – | – | 25 | 420 | ≥ 2000 | –
4 | O=C1OC(Nc2ccc3c(c2)COCO3)c2ccccc21 (stereo not shown) [Product 21] | > 2000 mg/kg | – | – | 400 | 500 | 61 | 275 | – | % activity (inhibition of edema) (rats; 300 mg/kg oral, 2H): 44%; % activity (inhibition of edema) (rats; 300 mg/kg oral, 4H): 43%
5 | O=C1OC(Nc2ccc3c(c2)OCCO3)c2ccccc21 (stereo not shown) [Product 13] | ≥ 1000 mg/kg | – | – | 230 | 210 | – | 100 | ≥ 3000 | % activity (inhibition of edema) (rats; 150 mg/kg oral, 2H): 77%; % activity (inhibition of edema) (rats; 150 mg/kg oral, 4H): 50%; % activity (inhibition of edema) (rats; 300 mg/kg oral, 2H): 76%; % activity (inhibition of edema) (rats; 300 mg/kg oral, 4H): 55%; % activity (mice [2]; 150 mg/kg oral): 73%
6 | O=C1OC(Nc2ccc3c(c2)OC2(CCCCC2)O3)c2ccccc21 (stereo not shown) [Product 3] | 1000 to 2000 mg/kg | 20 | 21 | – | – | 29 | – | ≥ 2000 | –
7 | CC(=O)OCC1COc2cc(NC3OC(=O)c4ccccc43)ccc2O1 (stereo not shown) [Product 20] | > 2000 mg/kg | – | – | – | – | 13 | 550 | – | % activity (inhibition of edema) (rats; 150 mg/kg oral, 2H): 16%; % activity (inhibition of edema) (rats; 150 mg/kg oral, 4H): 3%; % activity (inhibition of edema) (rats; 300 mg/kg oral, 2H): 10%; % activity (inhibition of edema) (rats; 300 mg/kg oral, 4H): 13%
8 | Cc1cc2c(cc1NC1OC(=O)c3ccccc31)OCO2 (stereo not shown) [Product 9] | 1000 to 2000 mg/kg | 39 | 60 | 220 | 240 | – | 70 | > 2000 | % activity (inhibition of edema) (rats; 200 mg/kg oral, 2H): 29%; % activity (inhibition of edema) (rats; 400 mg/kg oral, 2H): 71%; % activity (mice [2]; 100 mg/kg oral): 83%
9 | CCN(c1ccc2c(c1)OCO2)C1OC(=O)c2ccccc21 (stereo not shown) [Product 12] | – | – | – | – | – | – | 45 | ~590 | % activity (inhibition of edema) (rats; 25 mg/kg (footnote *) oral, 2H): 33%; % activity (inhibition of edema) (rats; 25 mg/kg (footnote *) oral, 4H): 17%; % activity (inhibition of edema) (rats; 50 mg/kg oral, 2H): 43%; % activity (inhibition of edema) (rats; 50 mg/kg oral, 4H): 28%; % activity (mice [2]; 50 mg/kg oral): 61%
10 | COc1ccc2c(c1OC)C(=O)OC2Nc1ccc2c(c1)OCO2 (stereo not shown) [Product 8] | 750 to 1000 mg/kg | 66 | 48 | 180 | 230 | 54 | 180 | ~1000 | % activity (inhibition of edema) (rats; 200 mg/kg oral, 2H): 68%; % activity (inhibition of edema) (rats; 400 mg/kg oral, 2H): 74%
11 | CCC1(CC)Oc2ccc(NC3OC(=O)c4ccccc43)cc2O1 (stereo not shown) [Product 2] | ~ 1500 mg/kg | – | 20 | – | – | 29 | – | ~2000 | –
